# From patent publication US11166924B2, “N-methyl-d-aspartate receptor allosteric modulators and methods for their use” (Qingdao Primedicine Pharmaceutical Company, Ltd., priority 2016, dated 2021)
# Assays:
# cortical neurons = assay: NMDA-induced excitotoxicity (LDH release) in cortical neurons; assay type: cell-based, rat; conditions: in the absence of NVP-AAM007; FIG. 16
# Description: Lactate dehydrogenase (LDH) is a cytoplasmic enzyme that can convert nicotinamide adenine dinucleotide (NAD) into NADH (the reduced form). LDH is released from cells into culture medium when the plasma membrane integrity is compromised. Therefore, the amount of released LDH represents the degree of cell death. In this study, the extracellular LDH level was measured using an in vitro toxicology assay kit obtained from Sigma-Aldrich (no. TOX-7). The basis of this LDH assay is as follows: (1) LDH reduces NAD into NADH, (2) the resulting NADH is then used in the stoichiometric conversion of a tetrazolium dye, and (3) the resulting colored compound is measured by a spectrophotometric microplate reader at a wavelength of 490 nm. The cell death rate was expressed as a ratio (%) between the absorbance of the treated group and that of the control group.
# Cortical cultures were treated with Npam43, and assessed for NMDA-induced excitotoxicity after 20-24 hrs by measuring lactate dehydrogenase (LDH) release. […] LDH release was measured using an in vitro toxicology assay kit obtained from Sigma-Aldrich (no. TOX-7). The cell death rate was expressed as a ratio (%) between the absorbance of the treated group and that of the control group.
# [1] = test system: CREB phosphorylation (pCREB); assay: CREB phosphorylation (pCREB) immunoblotting in cortical neurons; assay type: cell-based, rat; conditions: presence or absence of ifenprodril; FIG. 15a
# Description: Dissociated cultures of rat cortical neurons were prepared from 18 day-old Sprague Dawley rat embryos as described previously. To obtain mixed cortical cultures enriched with neurons, uridine (10 μM) and 5-Fluor-2′-deoxyuridine (10 μM) were added to the culture medium at 3 days in vitro (DIV) and maintained for 48 h to inhibit non-neuronal cell proliferation before the cultures were returned to the normal culture medium. Mature neurons (11-14 DIV) were used for experiments. Mouse cortical cultures were prepared using embryos at 18 days post-coitum from litters resulting from heterozygote GluN2A+/− or GluN2B+/− matings. To obtain homozygous and wild-type (WT) littermate control neuronal cultures, cortical cells from individual embryos were plated separately. Genotyping was performed as described previously using tail samples collected from each embryo. To induce neuronal apoptosis, cortical cultures were stimulated with NMDA (50 μM) and glycine (10 μM) for 20 min, or STS (100 nM) for 1 h in Mg2+-free extracellular solution (ECS) containing the following (in mM): 25 HEPES acid, 140 NaCl, 33 glucose, 5.4 KCl, and 1.3 CaCl2, with pH 7.35 and osmolarity 320-330 mOsm. […]
# GluN1/GluN2A^F115Y = molecular target: T1, GluN1/GluN2A^F115Y (Rattus norvegicus, UniProt P35439+Q00959, F115Y); assay: Patch clamp in HEK293 cells expressing mutant GluN1/GluN2A F115Y; assay type: cell-based
# T1 construct: expressed in transfected cells; host or cells: HEK293
# T1 sequence (Q00959 23-1464 F115Y, other chains not shown): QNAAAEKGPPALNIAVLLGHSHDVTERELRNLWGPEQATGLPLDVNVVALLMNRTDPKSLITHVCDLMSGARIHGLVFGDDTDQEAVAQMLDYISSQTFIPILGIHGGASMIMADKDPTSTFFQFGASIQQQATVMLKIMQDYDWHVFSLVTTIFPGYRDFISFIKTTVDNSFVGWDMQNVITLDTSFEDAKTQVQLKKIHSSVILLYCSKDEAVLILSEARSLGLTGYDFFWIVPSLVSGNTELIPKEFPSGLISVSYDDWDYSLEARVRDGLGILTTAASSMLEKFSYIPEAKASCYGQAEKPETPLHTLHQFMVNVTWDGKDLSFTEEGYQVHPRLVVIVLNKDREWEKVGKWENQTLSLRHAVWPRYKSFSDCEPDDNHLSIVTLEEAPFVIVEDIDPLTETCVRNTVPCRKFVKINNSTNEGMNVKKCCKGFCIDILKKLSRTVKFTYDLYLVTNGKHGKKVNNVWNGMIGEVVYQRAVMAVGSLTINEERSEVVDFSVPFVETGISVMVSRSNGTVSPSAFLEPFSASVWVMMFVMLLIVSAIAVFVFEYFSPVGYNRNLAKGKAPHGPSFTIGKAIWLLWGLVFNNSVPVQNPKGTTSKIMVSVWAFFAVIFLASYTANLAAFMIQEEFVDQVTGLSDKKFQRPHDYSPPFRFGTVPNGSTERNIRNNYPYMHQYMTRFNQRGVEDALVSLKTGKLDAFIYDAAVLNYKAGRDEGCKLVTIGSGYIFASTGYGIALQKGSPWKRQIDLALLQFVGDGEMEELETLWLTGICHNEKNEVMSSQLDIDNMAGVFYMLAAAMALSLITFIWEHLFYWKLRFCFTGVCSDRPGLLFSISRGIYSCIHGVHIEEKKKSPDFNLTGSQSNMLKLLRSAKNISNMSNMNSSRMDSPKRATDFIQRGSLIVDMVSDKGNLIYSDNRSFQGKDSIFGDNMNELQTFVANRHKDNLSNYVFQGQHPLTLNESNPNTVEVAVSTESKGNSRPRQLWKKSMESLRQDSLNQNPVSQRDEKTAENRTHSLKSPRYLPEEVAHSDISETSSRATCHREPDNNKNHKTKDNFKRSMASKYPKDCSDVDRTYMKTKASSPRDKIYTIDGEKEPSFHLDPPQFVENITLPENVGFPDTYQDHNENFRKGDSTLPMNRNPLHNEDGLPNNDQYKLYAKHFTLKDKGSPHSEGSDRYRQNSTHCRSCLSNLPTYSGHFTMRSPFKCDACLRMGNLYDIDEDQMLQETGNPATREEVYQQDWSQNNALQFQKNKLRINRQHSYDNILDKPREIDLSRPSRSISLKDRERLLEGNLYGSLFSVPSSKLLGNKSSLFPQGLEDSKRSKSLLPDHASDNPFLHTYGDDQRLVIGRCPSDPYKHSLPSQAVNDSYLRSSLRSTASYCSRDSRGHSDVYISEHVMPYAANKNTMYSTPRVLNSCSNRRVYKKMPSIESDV
# Description: Whole cell patch-clamp recordings were performed under voltage-clamp mode using an Axopatch 200B or 1D patch-clamp amplifier (Molecular Devices). Whole-cell currents were recorded at a holding potential of −60 mV unless indicated elsewhere, and signals were filtered at 2 kHz, digitized at 10 kHz (Digidata 1322A). Recording pipettes (3-5 MΩ) were filled with intracellular solution containing (mM): CsCl 140, HEPES 10, Mg-ATP 4, QX-314 5, pH 7.20; osmolarity, 290-295 mOsm. BAPTA (10 mM) was added in the intracellular solution (unless otherwise specified). The coverslips were continuously superfused with extracellular solution containing (mM): NaCl 140, KCl 5.4, HEPES 10, CaCl2 1.3, glucose 20, pH 7.4; osmolarity, 305-315 mOsm. NMDA-induced currents were applied by NMDA through perfusion fast-step (Warner Instruments). With perfusion fast-step system, NMDA application was achieved by using a two-square barrel glass tubing and depending on the age of the cultured neurons, CNQX (10 μM), TTX (0.5 μM) or BIC (10 μM) were added in the extracellular solution to minimize the activation of ionotropic glutamate receptors and voltage-gated sodium channels, respectively. All experiments were performed at room temperature. Recordings from at least six HEK293 cells/neurons were performed for all active compounds. […]
smiles,measurement,setting,value
"CCOc1cc(Cl)c(Cl)c(/C=N/NC(=O)c2ccccc2Br)c1O [Npam43, (E)-2-bromo-N′-(2,3-dichloro-5-ethoxy-6-hydroxybenzylidene)benzohydrazide]",NMDA-induced excitotoxicity,cortical neurons,reduced
same,CREB phosphorylation (pCREB),[1],increases
same,Relative potentiation,GluN1/GluN2A^F115Y; Table 3,100 ± 4.2%
same,Net Difference potentiation,GluN1/GluN2A^F115Y; normalized to wild-type,−52.2 ± 0.52%
